How the values were obtained:
[1] = system: HEK-293T, A549, Calu3 and Caco2 cell lines
[2] = system: SARS-CoV-2 reference strain; assay: SARS-CoV-2 replication in Calu3 cells (viral genome copies, RT-qPCR); type: cell-based
[3] = system: lentiviral vectors pseudotyped with the SARS-CoV-2 Spike protein (CoV-2 LV); assay: microbe, parasite or virus in culture; type: cell-based
[4] = system: VSVg pseudotyped LV; type: cell-based
[5] = system: SARS-CoV-2; assay: SARS-CoV-2 inhibition summarised over all the cell lines; type: cell-based; conditions: Severe acute respiratory syndrome coronavirus 2
[6] = MTT cytotoxicity (CC50) in Calu3 cells; type: cell-based; conditions: human, four-parameter sigmoidal fit, unit inferred
Description: (§1) MTT cell viability assay was performed following furnisher protocols. Cells were seeded at the density of 20,000 cells/well in a 96 well plate containing 100 μL complete DMEM (Gibco, USA) supplemented with 10% FBS (Gibco, USA) and 1% Penstrep (Gibco, USA). Cells were incubated for 12 hours at 37° C. in humidified 5% CO2 incubator for adherence. After 12-hour incubation, the media was replaced with fresh media, and cells were treated with compounds. Untreated cells were considered as negative control, DMSO treated cells were considered as the vehicles. After the treatment, cells were incubated at 37° C. in humidified 5% CO2 incubator. 48-hour post-treatment, 20 μL of MTT substrate (5 mg/mL) was added in each well and incubated for 4 additional hours at 37° C. in the dark. The media was then carefully removed, and 492 nm absorbance was measured.

[7] = MTT cytotoxicity (CC50) in A549-ACE2 cells; type: cell-based; conditions: human, A 549-ACE2 cells, four-parameter sigmoidal fit, unit inferred
Description: as §1

[8] = system: SARS-CoV-2 reference strain; assay: SARS-CoV-2 replication in A549-ACE2 cells (viral genome copies, RT-qPCR); type: cell-based
[9] = MTT cytotoxicity (CC50) in 293-ACE2 cells; type: cell-based; conditions: human, four-parameter sigmoidal fit, unit inferred
Description: as §1

SMILES	cytotoxicity in various cell lines ([1]; various cell lines, no concentration stated)	cytotoxicity (MTT assay) ([1]; within the 0-50 μM range, HEK-293T, A549, Calu3 and Caco2)	IC50 ([2]; Severe acute respiratory syndrome coronavirus 2, Calu-3, SARS-CoV-2 reference strain, 24 hours, read-out: concentration giving 50% inhibition of the viral replication)	IC50 ([2]; Severe acute respiratory syndrome coronavirus 2, Calu-3, apparent IC50, unit inferred, read-out: IC50)	decrease of the viral infectivity (CoV-2 LVs) [3]	IC50 ([3]; Severe acute respiratory syndrome coronavirus 2, 293-ACE2 cells, apparent IC50, unit inferred)	effect on the VSVg LVs infectivity [4]	inhibition at 1 µM ([5]; at 1 μM, pulmonary A549-ACE2 and Calu3 cells, read-out: inhibition of virus replication)	IC50 ([5]; read-out: IC50 among all the cell lines)	CC50 at 48 h [6]	CC50 at 48 h [7]	comparative efficiency in inhibiting the SARS-CoV-2 replication [8]	IC50 ([8]; Severe acute respiratory syndrome coronavirus 2, A549-ACE2, A 549-ACE2 cells, apparent IC50, unit inferred)	CC50 at 48 h [9]
O=S(=O)(c1ccccc1)n1c(-c2cncc(-c3cc4cc(OCc5ccccc5)ccc4n3S(=O)(=O)c3ccccc3)c2)cc2cc(OCc3ccccc3)ccc21 [AB-00011778]	without showing significant cyto-toxicity	no or poor cytotoxicity	~1000 nM	1000 nM	40 to 80%	1000 nM	without significant effect	40 to 60%	250 to 5000 nM	> 30000 nM	> 30000 nM	more efficient than the Ritonavir molecule	250 nM	> 50000 nM
CC(C)c1nc(CN(C)C(=O)N[C@H](C(=O)N[C@@H](Cc2ccccc2)C[C@H](O)[C@H](Cc2ccccc2)NC(=O)OCc2cncs2)C(C)C)cs1 [Ritonavir, reference compound]												AB-00011778 was more efficient than the Ritonavir molecule		

Source: US20260158015A1 (Universite De Bordeaux, priority 2021, published 2026)
